Experimental findings from ChEMBL document CHEMBL5321235, “Design, synthesis, and SAR study of novel flavone 1,2,4-oxadiazole derivatives with anti-inflammatory activities for the treatment of Parkinson's disease” (Eur J Med Chem, 2023) are described below.

Data set [1] has as its system BV-2. The data set can be described thus: Inhibition of LPS-induced ROS production in mouse BV-2 cells at 5 uM pretreated for 18 hrs followed by LPS-stimulation and measured after 6 hrs by fluorescence microscopic analysis. As to conditions: time 24.0 hrs. Type of data set: functional, cell-based.
Data set [2] relates to BV-2. The data set can be described thus: Antiinflammatory activity in mouse BV-2 cells assessed as inhibition of LPS-induced NO production at 5 uM pretreated for 18 hrs followed by LPS-induction and measured after 6 hrs relative to control. Type of data set: functional. Set-up: scale not given: the % may be the effect or the level left. The following applies: time 24 hrs.

The test system of data set [3] is BV-2. The data set can be described thus: Cytotoxicity against mouse BV-2 cells assessed as reduction in cell viability at 5 uM pretreated for 18 hrs followed by LPS-stimulation and measured after 6 hrs by MTT assay. Type of data set: toxicity, cell-based. The following applies: bv-2, 24 h.
In another data set the test system is Microglia. The data set is described as follows: Neuroprotective activity against MPTP-induced apoptosis in mouse microglia assessed as reduction in apoptotic cells in brain tissue at 15 mg/kg, ip administered with compound once daily for 2 weeks followed by MPTP addition on day 8 and measured after 2 weeks of compound addition by TUNEL staining based immunofluorescence analysis. Type of data set: functional, organism-based.

In data set [4] the test system is BV-2. The data set is described as follows: Cytotoxicity against mouse BV-2 cells assessed as reduction in cell viability at 10 uM pretreated for 18 hrs followed by LPS-stimulation and measured after 6 hrs by MTT assay. Type of data set: toxicity, cell-based. The following applies: bv-2, 24 h.

Active and inactive are the calls of the source. The calls are words filed in the database; no cut-off is given here.

For the molecule `Cc1c(-c2ccccc2)oc2c(-c3nc(-c4ccsc4)no3)cccc2c1=O`, the inhibition result in the data set on BV-2 [1] is “Active”.
For `COc1cccc(-c2noc(-c3cccc4c(=O)c(C)c(-c5ccccc5)oc34)n2)c1`, in the data set on BV-2 [1], the inhibition result is “inactive”. The Activity in the data set with BV-2 [2] is reported as 22.4%.
As for `Cc1c(-c2ccccc2)oc2c(-c3nc(-c4cccc(Br)c4)no3)cccc2c1=O`, the Activity entry was “Non-Toxic” with BV-2 [3] and 41.6% with BV-2 [2]. The inhibition entry with BV-2 [1] was “Active”.
Consider `CCc1ccc(-c2noc(-c3cccc4c(=O)c(C)c(-c5ccccc5)oc34)n2)cc1`, for which, in the data set on BV-2 [1], the inhibition result was “Active”. Further, the Activity with BV-2 [2] came out at 41.6%.
Taken in the same sequence, the figures for `Cc1c(-c2ccccc2)oc2c(-c3nc(-c4ccccc4)no3)cccc2c1=O` were “Active” and 22.4%.
On to `COc1ccc(-c2coc3cc(O)cc(O)c3c2=O)cc1`, for which the inhibition result in the data set on BV-2 [1] is “Active”.
For `C#CCN[C@@H]1CCc2ccccc21`, the outcome in the data set with Microglia was Active. In addition, in the data set on BV-2 [1], the inhibition result is “Active”.
With `COc1ccccc1-c1noc(-c2cccc3c(=O)c(C)c(-c4ccccc4)oc23)n1`, the inhibition entry in the data set with BV-2 [1] was “inactive”. The Activity in the data set on BV-2 [2] is recorded as 41.6%.
Take `Cc1ccc(-c2noc(-c3cccc4c(=O)c(C)c(-c5ccccc5)oc34)n2)cc1`: the inhibition result with BV-2 [1] was “Active”. The Activity in the data set with BV-2 [2] stood at 22.4%.
Take `Cc1ccc(-c2noc(-c3ccc(F)c(F)c3)n2)cn1`: the inhibition entry in the data set with BV-2 [1] is “Active”.
Regarding `Cc1c(-c2ccccc2)oc2c(-c3nc(-c4ccc(F)cc4)no3)cccc2c1=O`, the Activity result is “Non-Toxic” in the data set on BV-2 [3], 41.6% with BV-2 [2] and “Non-Toxic” in the data set on BV-2 [4]. The inhibition entry in the data set with BV-2 [1] is “Active”.
For `Cc1c(-c2ccccc2)oc2c(-c3nc(-c4cccc(F)c4)no3)cccc2c1=O`, the inhibition result in the data set on BV-2 [1] was “Active”. In the data set on BV-2 [2], the Activity is 22.4%.
With `Cc1c(-c2ccccc2)oc2c(-c3nc(-c4ccccc4F)no3)cccc2c1=O`, in the data set with BV-2 [1], the inhibition entry was “Active”. The Activity with BV-2 [2] turned out to be 41.6%.
As for `Cc1c(-c2ccccc2)oc2c(-c3nc(-c4ccc(Br)cc4)no3)cccc2c1=O`, the Activity entry in the data set with BV-2 [3] is reported as “Non-Toxic”; in the data set with BV-2 [2], 41.6%. The inhibition result in the data set with BV-2 [1] is “Active”.
As for `COc1ccc(-c2noc(-c3cccc4c(=O)c(C)c(-c5ccccc5)oc34)n2)cc1`, the inhibition result with BV-2 [1] is “Active”. In addition, the Activity in the data set with BV-2 [2] came out at 22.4%.
Taken in the same sequence, the figures for `Cc1c(-c2ccccc2)oc2c(-c3nc(-c4ccccc4Br)no3)cccc2c1=O` were “Active” and 41.6%.
Taken in the same sequence, the figures for `Cc1ccccc1-c1noc(-c2cccc3c(=O)c(C)c(-c4ccccc4)oc23)n1` were “Active” and 22.4%.
